These results are taken from patent US20090325270A1, “USE OF 2-HYDROXY-5-OXOPROLINE IN CONJUNCTION WITH ALGAE” (priority 2008, published 2009).

The experiment deals with pale-green mutant Nannochloropsis. In words: Growth of algae cultures treated with 2-hydroxy-5-oxoproline (Example One, FIG. 3). Format: cell-based. The text has this:
At step 130, the pale-green mutant Nannochloropsis may be cultivated in an aqueous environment having an effective amount of 2-hydroxy-5-oxoproline. The effective amount of 2-hydroxy-5-oxoproline may increase the growth rate of the pale-green mutant Nannochloropsis.
1. Light intensity was 600 micro-Einsteins.
2. Temperature was held constant at 25 C.
3. Cultures were inoculated to the same extent (as determined by optical density at […], O.D. 750).
4. The bicarb controls were used because the AB1 chemical, which is the 2-hydroxy-5-oxoproline compound, was dissolved in a bicarbonate buffer. This control was to make sure that differences in growth were not due to the presence of bicarbonate. The bicarb controls contain the same concentration of bicarbonate as the AB1 flasks.
5. The cultures were grown on urea as the nitrogen-source.
The bicarb controls were inoculated with 10 mls of 1.3 M bicarbonate solution (pH 9.5). The AB-1 treated cultures had approximately 0.1 g of 2-hydroxy-5-oxoproline added with the algal inoculum. No treat 2 had approximately 50% more cells inoculated as no treat 1, bicarb 1 and 2 and the AB-1 cultures. […] The difference in slope between the AB-1 cultures and the no-treat 1 and bicarb controls was approximately 50%-60%. Therefore, by feeding 2-hydroxy-5-oxoproline to pale-green mutant Nannochloropsis, a greater growth rate could be achieved, which would allow high cell density cultures to be produced quicker, so the advantages of the pale-green phenotype over the wild-type become apparent.

As for `O=C1CC[C@@](O)(C(=O)O)N1` [AB-1, 2-hydroxy-5-oxoproline], the “difference in slope (growth) between the AB-1 cultures and the no-treat 1 and bicarb controls” value (approximately 0.1 g 2-hydroxy-5-oxoproline added with inoculum to 800 mls media, approximately 300 hours, constant illumination 600 micro-Einsteins, 25 C, urea as nitrogen-source) was 50%-60%. Besides, the “growth compared with no treat 2 (approximately 50% more cells inoculated)” value (approximately 0.1 g 2-hydroxy-5-oxoproline in 800 mls media, approximately 300 hours) is reported as “grew as if they had been inoculated with more cells than had actually been added”. Further, for the setting “as measured by absorbance at 750 nm, effective amount of 2-hydroxy-5-oxoproline”, the “faster growth than culture without 2-hydroxy-5-oxoproline” value is listed as “fifty to sixty”.
